# Test results: paper PMC6542800 (Nature Communications, 2019)
# T1: Curled (NOCT ortholog), full-length, Curled 1-419 (Drosophila melanogaster, UniProt A8JQX3)
# T1 construct: gene cu; full length 1-419 of splicing form H; E. coli, pGEX-6P, GST tag removed with Prescission protease
# T1 sequence (A8JQX3 224-642): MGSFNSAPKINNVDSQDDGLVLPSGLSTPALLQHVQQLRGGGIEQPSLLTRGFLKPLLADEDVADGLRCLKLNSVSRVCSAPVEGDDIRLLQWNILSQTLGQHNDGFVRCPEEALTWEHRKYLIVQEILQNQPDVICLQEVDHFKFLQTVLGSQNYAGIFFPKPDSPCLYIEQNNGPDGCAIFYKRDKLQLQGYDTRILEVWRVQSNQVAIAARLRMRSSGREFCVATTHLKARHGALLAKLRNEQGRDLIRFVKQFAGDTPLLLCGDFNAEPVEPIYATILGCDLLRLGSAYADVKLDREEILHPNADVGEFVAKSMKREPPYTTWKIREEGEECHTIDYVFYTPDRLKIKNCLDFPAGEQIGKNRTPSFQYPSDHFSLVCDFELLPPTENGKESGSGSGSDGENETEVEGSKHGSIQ
# T2: full-length (FL) human NOCT (Homo sapiens, UniProt Q9UK39)
# T2 construct: E. coli, pGEX-6P, GST tag removed with Prescission protease
# T2 sequence (Q9UK39 1-431): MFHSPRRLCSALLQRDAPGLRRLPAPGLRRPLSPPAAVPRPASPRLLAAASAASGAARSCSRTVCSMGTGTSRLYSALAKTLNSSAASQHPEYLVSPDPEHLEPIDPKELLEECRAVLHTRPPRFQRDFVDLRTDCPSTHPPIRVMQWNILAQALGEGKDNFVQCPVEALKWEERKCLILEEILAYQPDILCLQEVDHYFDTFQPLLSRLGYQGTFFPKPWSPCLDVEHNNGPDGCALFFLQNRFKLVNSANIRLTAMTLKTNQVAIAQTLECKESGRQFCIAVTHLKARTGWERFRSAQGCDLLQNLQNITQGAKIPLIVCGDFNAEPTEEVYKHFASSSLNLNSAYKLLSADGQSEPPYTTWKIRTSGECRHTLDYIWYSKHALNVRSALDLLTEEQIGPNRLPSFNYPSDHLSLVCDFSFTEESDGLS
# T3: NOCT (122-431), catalytic domain of human NOCT (Homo sapiens, UniProt Q9UK39)
# T3 construct: catalytic domain, residues 122-431; E. coli BL21 (DE3)-CodonPlus RIPL, pGEX-6P, GST tag removed with Prescission protease
# T3 sequence (Q9UK39 122-431): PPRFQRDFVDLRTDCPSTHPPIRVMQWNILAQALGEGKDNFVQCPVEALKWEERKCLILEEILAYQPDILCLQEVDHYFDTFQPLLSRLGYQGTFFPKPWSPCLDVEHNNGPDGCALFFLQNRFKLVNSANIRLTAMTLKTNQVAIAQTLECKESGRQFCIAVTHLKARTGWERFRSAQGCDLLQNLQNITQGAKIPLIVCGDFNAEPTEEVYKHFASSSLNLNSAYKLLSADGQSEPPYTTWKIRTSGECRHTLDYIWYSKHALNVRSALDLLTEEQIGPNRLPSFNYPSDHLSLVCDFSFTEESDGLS
# B1: NOCT (122-431), catalytic domain of human NOCT (Homo sapiens) (protein)
# chain: T3 sequence (Q9UK39 122-431)
# B2: full-length (FL) human NOCT (Homo sapiens) (protein)
# chain: T2 sequence (Q9UK39 1-431)
# Experiments:
# [1] = biological target: T1, Curled (NOCT ortholog), full-length, Curled 1-419; assay: ion-exchange chromatography, UV […] nm; assay type: biochemical; settings: 22 °C, 20 mM Tris-HCl pH 8.0, 70 mM NaCl, 2 mM MgCl2
# [2] = biological target: T2, full-length (FL) human NOCT; assay: ion-exchange chromatography, UV […] nm; assay type: biochemical; settings: 22 °C, 20 mM Tris-HCl pH 8.0, 70 mM NaCl, 2 mM MgCl2; 1 mM substrate, 0.5 μM enzyme
# [3] = biological target: T3, NOCT (122-431), catalytic domain of human NOCT; assay: LC-MS/MS product detection; assay type: biochemical; settings: 10 μM enzyme, 1 h at r.t.
# purified protein = substrate: NC(=O)C1=CN([C@@H]2O[C@H](COP(=O)(O)OP(=O)(O)OC[C@H]3O[C@@H](n4cnc5c(N)ncnc54)[C@H](OP(=O)(O)O)[C@@H]3O)[C@@H](O)[C@H]2O)C=CC1; assay: purified protein; settings: 22 °C, 20 mM Tris-HCl pH 8.0, 70 mM NaCl
molecule,measurement,setting,value
NC(=O)c1ccc[n+]([C@@H]2O[C@H](COP(=O)(O)OP(=O)(O)OC[C@H]3O[C@@H](n4cnc5c(N)ncnc54)[C@H](OP(=O)(O)O)[C@@H]3O)[C@@H](O)[C@H]2O)c1 [NADP^+],"ion-exchange chromatography, UV 260 nm",[1],"Curled cleaved both NADP^+ and NADPH, exhibiting a preference for NADPH"
same,"ion-exchange chromatography, UV 260 nm",[2],"conversion of both NADP^+ and NADPH into NAD^+ and NADH, respectively by full-length (FL) NOCT"
same,LC-MS/MS product detection,[3],converted NADPH into NADH and NADP^+ into NAD^+ (Fig. 1c)
NC(=O)C1=CN([C@@H]2O[C@H](COP(=O)(O)OP(=O)(O)OC[C@H]3O[C@@H](n4cnc5c(N)ncnc54)[C@H](OP(=O)(O)O)[C@@H]3O)[C@@H](O)[C@H]2O)C=CC1 [NADPH],"ion-exchange chromatography, UV 260 nm","[1]; 1 mM substrate, 500 nM enzyme","In contrast, Curled readily cleaved NADPH (Fig. 5c; Supplementary Fig. 5b)"
B1,kcat,"purified protein; 2 mM MgCl2, 4.8 μM enzyme, printed range may span catalytic domain and full-length protein",3.6 s⁻¹
B2,kcat,"purified protein; 2 mM MgCl2, printed range may span catalytic domain and full-length protein",34 s⁻¹
